Our source for the IC50 values is patent US20210122730A1, “GLUCOCORTICOID RECEPTOR MODULATORS” (ORIC Pharmaceuticals, Inc., priority 2017, published 2021).

Molecules are shown by their SMILES. pIC50: −log10 of the molar value.

This test concerns the target T1, GR (Homo sapiens, UniProt P04150).
T1 construct: expressed in transfected cells; host or cells: CHO-K1
T1 sequence (P04150 1-777): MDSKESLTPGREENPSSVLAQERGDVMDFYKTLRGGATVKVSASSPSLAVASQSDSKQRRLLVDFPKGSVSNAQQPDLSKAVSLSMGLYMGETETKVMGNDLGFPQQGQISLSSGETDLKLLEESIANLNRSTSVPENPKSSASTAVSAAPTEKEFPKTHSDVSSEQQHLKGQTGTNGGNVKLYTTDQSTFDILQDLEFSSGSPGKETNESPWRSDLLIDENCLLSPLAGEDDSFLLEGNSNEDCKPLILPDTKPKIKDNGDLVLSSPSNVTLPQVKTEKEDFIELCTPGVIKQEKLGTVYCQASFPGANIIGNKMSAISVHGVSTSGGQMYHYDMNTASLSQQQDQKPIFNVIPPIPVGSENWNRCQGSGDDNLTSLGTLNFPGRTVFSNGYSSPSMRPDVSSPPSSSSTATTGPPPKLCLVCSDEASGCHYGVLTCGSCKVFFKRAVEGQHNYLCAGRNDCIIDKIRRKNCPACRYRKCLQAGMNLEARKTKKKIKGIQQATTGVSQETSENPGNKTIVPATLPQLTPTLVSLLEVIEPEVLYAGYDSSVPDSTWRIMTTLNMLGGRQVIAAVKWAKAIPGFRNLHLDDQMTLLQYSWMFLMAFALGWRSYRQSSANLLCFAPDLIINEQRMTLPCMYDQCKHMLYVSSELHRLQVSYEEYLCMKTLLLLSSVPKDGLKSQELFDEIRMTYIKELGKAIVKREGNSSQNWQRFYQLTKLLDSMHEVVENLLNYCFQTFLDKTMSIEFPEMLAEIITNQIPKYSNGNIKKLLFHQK
Description: In Vitro GR Luciferase Reporter Assay (antagonist mode, CHO-K1-GR-MMTV-Luc reporter cells). It counts as cell-based. Conditions: antagonist assay with 10 nM Dexamethasone, 18-24 hours. From the text: Example A: In Vitro GR Luciferase Reporter Assay
Cell Line: CHO-K1-GR-MMTV-Luc reporter cells
Culture Media: DMEM (with phenol red)+10% FBS
Assay Media: DMEM (without phenol red)+10% CSS
Culture CHO-K1I-GR-MMTV-Luc reporter cells in 15 cm plates in Culture Media at conditions less than 90% confluence.
Prepare 200×DMSO 1:5 serial dilutions of control and test compounds in 96-well non-sterile V bottom plate in DMSO, 8serial dilutions for each compound.
Prepare 5× Assay Media diluted compound serial dilutions in 96-well non-sterile V bottom plate: Add 97.5 uL/well of Assay Media into 96-well then add 2.5 ul of 200× concentration of compounds and mix well.
Seed cells for Antagonist Assay: […] CHO-K1-GR-MMTV-Luc reporter cells were seeded in a Corning 3707 flat clear bottom 384-well white TC plate in 20 ul of Assay Media containing 12.5 nM Dexamethasone (final concentration=10 nM).
Add compounds: 5 ul of assay media diluted compounds were added to appropriate wells and followed a quick spin (1000 rpm, 10 sec) to bring media and cells to the bottom of plate. The plates were covered with SealMate film to avoid evaporation and placed in 37° C. incubator for approximately 18-24 hours.
Read plates: Equilibrate appropriate amount of Promega OneGlo luciferase reagent to room temperature. Remove the plates from incubator and add 25 uL of OneGlo reagent/well by multiple channel pipette and read the plates with Tecan F500 luminometer within 3 minutes.
The ability of the compounds disclosed herein to inhibit GR activity was quantified and the respective IC50 value was determined. Table 1and Table 2provide the cellular IC50 values of compounds disclosed herein.
In turn, `Cc1ccnc(C(=O)[C@]23Cc4cnn(-c5ccc(F)cc5)c4C=C2CC[C@H](S(=O)(=O)c2ccccc2)C3)c1` [Example 36, ((4aS,6S)-1-(4-fluorophenyl)-6-(phenylsulfonyl)-1,4,5,6,7,8-hexahydro-4aH-benzo[f]indazol-4a-yl)(4-methylpyridin-2-yl)methanone] showed a pIC50 not below 7.00.

For the molecule `O=C(c1ccccn1)[C@]12Cc3cnn(-c4ccc(F)cc4)c3C=C1CC[C@H](S(=O)(=O)c1cccc(Cl)c1)C2` [Example 37, ((4aS,6S)-6-((3-chlorophenyl)sulfonyl)-1-(4-fluorophenyl)-1,4,5,6,7,8-hexahydro-4aH-benzo[f]indazol-4a-yl)(pyridin-2-yl)methanone], the pIC50 is not below 7.00.

Regarding `Cc1ccnc(C(=O)[C@]23Cc4cnn(-c5ccc(F)cc5)c4C=C2CC[C@@H](S(=O)(=O)c2ccccc2)C3)c1` [Example 38, ((4aS,6R)-1-(4-fluorophenyl)-6-(phenylsulfonyl)-1,4,5,6,7,8-hexahydro-4aH-benzo[f]indazol-4a-yl)(4-methylpyridin-2-yl)methanone], the pIC50 was not below 7.00. Take `Cc1ccnc(C(=O)[C@]23Cc4cnn(-c5ccc(F)cc5)c4C=C2CC[C@H](S(=O)(=O)c2cnn(C)n2)C3)c1` [Example 39, ((4aS,6S)-1-(4-fluorophenyl)-6-((2-methyl-2H-1,2,3-triazol-4-yl)sulfonyl)-1,4,5,6,7,8-hexahydro-4aH-benzo[f]indazol-4a-yl)(4-methylpyridin-2-yl)methanone]: the pIC50 was not below 7.00. For `CC(C)(C)S(=O)(=O)[C@H]1CCC2=Cc3c(cnn3-c3ccc(F)cc3)C[C@]2(C(=O)c2ccccn2)C1` [Example 40, ((4aS,6S)-6-(tert-butylsulfonyl)-1-(4-fluorophenyl)-1,4,5,6,7,8-hexahydro-4aH-benzo[f]indazol-4a-yl)(pyridin-2-yl)methanone] the value was not below 7.00; for `O=C(c1cc(C(F)(F)F)ccn1)[C@]12Cc3cnn(-c4ccc(F)cc4)c3C=C1CC[C@H](S(=O)(=O)c1ccccn1)C2` [Example 41, ((4aS,6S)-1-(4-fluorophenyl)-6-(pyridin-2-ylsulfonyl)-1,4,5,6,7,8-hexahydro-4aH-benzo[f]indazol-4a-yl)(4-(trifluoromethyl)pyridin-2-yl)methanone], not below 7.00. The figure for `Cc1ccc(C(=O)[C@]23Cc4cnn(-c5ccc(F)cc5)c4C=C2CC[C@H](S(=O)(=O)c2ccccn2)C3)nc1` [Example 42, ((4aS,6S)-1-(4-fluorophenyl)-6-(pyridin-2-ylsulfonyl)-1,4,5,6,7,8-hexahydro-4aH-benzo[f]indazol-4a-yl)(5-methylpyridin-2-yl)methanone] is not below 7.00. The figure for `O=C(c1ccccn1)[C@]12Cc3cnn(-c4ccc(F)cc4)c3C=C1CC[C@H](S(=O)(=O)c1cc(C(F)(F)F)ccn1)C2` [Example 43, ((4aS,6S)-1-(4-fluorophenyl)-6-((4-(trifluoromethyl)pyridin-2-yl)sulfonyl)-1,4,5,6,7,8-hexahydro-4aH-benzo[f]indazol-4a-yl)(pyridin-2-yl)methanone] is not below 7.00; for `Cc1ccnc(C(=O)[C@]23Cc4cnn(-c5ccc(F)cc5)c4C=C2CC[C@H](S(=O)(=O)c2cccc(Cl)c2)C3)c1` [Example 44, ((4aS,6S)-6-((3-chlorophenyl)sulfonyl)-1-(4-fluorophenyl)-1,4,5,6,7,8-hexahydro-4aH-benzo[f]indazol-4a-yl)(4-methylpyridin-2-yl)methanone] it is not below 7.00; for `Cc1ccc(C(=O)[C@]23Cc4cnn(-c5ccc(F)cc5)c4C=C2CC[C@H](S(=O)(=O)c2ccccc2)C3)nc1` [Example 45, ((4aS,6S)-1-(4-fluorophenyl)-6-(phenylsulfonyl)-1,4,5,6,7,8-hexahydro-4aH-benzo[f]indazol-4a-yl)(5-methylpyridin-2-yl)methanone] it is not below 7.00. The molecule `O=C(c1ccccn1)[C@]12Cc3cnn(-c4ccc(F)cc4)c3C=C1CC[C@H](S(=O)(=O)C1CCOCC1)C2` [Example 46, ((4aS,6S)-1-(4-fluorophenyl)-6-((tetrahydro-2H-pyran-4-yl)sulfonyl)-1,4,5,6,7,8-hexahydro-4aH-benzo[f]indazol-4a-yl)(pyridin-2-yl)methanone] had a pIC50 not below 7.00. For `O=C(c1ccccn1)[C@]12Cc3cnn(-c4ccc(F)cc4)c3C=C1CC[C@H](S(=O)(=O)c1ccncc1)C2` [Example 47, ((4aS,6S)-1-(4-fluorophenyl)-6-(pyridin-4-ylsulfonyl)-1,4,5,6,7,8-hexahydro-4aH-benzo[f]indazol-4a-yl)(pyridin-2-yl)methanone] the value was not below 7.00. The figure for `Cc1ccnc(C(=O)[C@]23Cc4cnn(-c5ccc(F)cc5)c4C=C2CC[C@H](S(=O)(=O)c2ccncc2)C3)c1` [Example 48, ((4aS,6S)-1-(4-fluorophenyl)-6-(pyridin-4-ylsulfonyl)-1,4,5,6,7,8-hexahydro-4aH-benzo[f]indazol-4a-yl)(4-methylpyridin-2-yl)methanone] is not below 7.00; for `CC(C)(C)CS(=O)(=O)[C@H]1CCC2=Cc3c(cnn3-c3ccc(F)cc3)C[C@]2(C(=O)c2ccccn2)C1` [Example 49, ((4aS,6S)-1-(4-fluorophenyl)-6-(neopentylsulfonyl)-1,4,5,6,7,8-hexahydro-4aH-benzo[f]indazol-4a-yl)(pyridin-2-yl)methanone] it is not below 7.00. For `O=C(c1ccccn1)[C@]12Cc3cnn(-c4ccc(F)cc4)c3C=C1CC[C@H](S(=O)(=O)C1CCCC1)C2` [Example 50, ((4aS,6S)-6-(cyclopentylsulfonyl)-1-(4-fluorophenyl)-1,4,5,6,7,8-hexahydro-4aH-benzo[f]indazol-4a-yl)(pyridin-2-yl)methanone] the value was not below 7.00; for `Cc1ccc(C(=O)[C@]23Cc4cnn(-c5ccc(F)cc5)c4C=C2CC[C@@H](S(=O)(=O)c2ccccc2)C3)nc1` [Example 51, ((4aS,6R)-1-(4-fluorophenyl)-6-(phenylsulfonyl)-1,4,5,6,7,8-hexahydro-4aH-benzo[f]indazol-4a-yl)(5-methylpyridin-2-yl)methanone], not below 7.00; for `O=C(c1ccccn1)[C@]12Cc3cnn(-c4ccc(F)cc4)c3C=C1CC[C@H](S(=O)(=O)c1cccnc1)C2` [Example 53, ((4aS,6S)-1-(4-fluorophenyl)-6-(pyridin-3-ylsulfonyl)-1,4,5,6,7,8-hexahydro-4aH-benzo[f]indazol-4a-yl)(pyridin-2-yl)methanone], not below 7.00. `O=C(c1cc(C(F)(F)F)ccn1)[C@]12Cc3cnn(-c4ccc(F)cc4)c3C=C1CC[C@H](S(=O)(=O)c1cccnc1)C2` [Example 54, ((4aS,6S)-1-(4-fluorophenyl)-6-(pyridin-3-ylsulfonyl)-1,4,5,6,7,8-hexahydro-4aH-benzo[f]indazol-4a-yl)(4-(trifluoromethyl)pyridin-2-yl)methanone] showed a pIC50 not below 7.00. The molecule `O=C(c1ccc(C2CC2)cn1)[C@]12Cc3cnn(-c4ccc(F)cc4)c3C=C1CC[C@H](S(=O)(=O)c1ccccn1)C2` [Example 57, (5-cyclopropylpyridin-2-yl)((4aS,6S)-1-(4-fluorophenyl)-6-(pyridin-2-ylsulfonyl)-1,4,5,6,7,8-hexahydro-4aH-benzo[f]indazol-4a-yl)methanone] had a pIC50 not below 7.00.

For `O=C(c1ccc(C(F)(F)F)cn1)[C@]12Cc3cnn(-c4ccc(F)cc4)c3C=C1CC[C@H](S(=O)(=O)c1ccccn1)C2` [Example 58, ((4aS,6S)-1-(4-fluorophenyl)-6-(pyridin-2-ylsulfonyl)-1,4,5,6,7,8-hexahydro-4aH-benzo[f]indazol-4a-yl)(5-(trifluoromethyl)pyridin-2-yl)methanone], the negative-log IC50 (pIC50) is not below 7.00. The molecule `O=C(c1cc(C(F)(F)F)ccn1)[C@]12Cc3cnn(-c4ccc(F)cc4)c3C=C1CC[C@H](S(=O)(=O)C1CCOCC1)C2` [Example 59, ((4aS,6S)-1-(4-fluorophenyl)-6-((tetrahydro-2H-pyran-4-yl)sulfonyl)-1,4,5,6,7,8-hexahydro-4aH-benzo[f]indazol-4a-yl)(4-(trifluoromethyl)pyridin-2-yl)methanone] gave a pIC50 not below 7.00.
